In patent US20080227655A1, “Assessment of effect of an agent on a human biological condition using rodent gene expression panels” (priority 2006, published 2008):
Where “and” joins values, the source holds several entries; their conditions need not be identical. Equal values may be shown once.

Test system: custom murine 40-gene Precision Profile for Rheumatoid Arthritis, whole blood
Test: KRN (K/BxN) serum transfer induced arthritis model, whole blood gene expression by QPCR, vehicle or dexamethasone treatment
Type: in vivo, female BALB/c mice
Description: Whole blood gene expression changes were evaluated in vehicle control and drug-treated murine subjects across two murine models of arthritis according to the following arthritis models:
KRN Transgenic Mouse (K/B×N): K/B×N serum from transgenic mouse used to induce arthritis in female BALB/c mice (n=54). Collagen Induced Arthritis (CIA): Bovine type II collagen used to induce arthritis in male DBA/1 mice (n=54).
In addition, naïve, untreated animal groups at baseline and terminal day were included to control for potential age-related changes in gene expression over the extended study periods. Animal groups, time-points, and treatment schedules are summarized in Tables 20A and 20B, respectively.
Whole blood samples from animals were collected by retro-orbital bleed at selected time-points in accordance with the arthritis study schemas described in […], and transferred into sample collection tubes containing a 1.5× lysis solution and RPMI. Samples were processed into total RNA and cDNA. […] It was anticipated from these murine models would provide a better understanding of the relevant molecular response of arthritis induction and their potential correlation to the human disease condition.
Normal murine subject reference values (represented as normalized Ct or ΔCt values) were established for male DBA/1 mice (n=6 for the CIA study arm) and female BALB/c mice (n=6 for the KRN study arm). In both arms of the study, gene expression response of normal (naïve, non-immunized and untreated) murine subjects were evaluated in groups of 6 each at day 0 and day 60 for the CIA study arm, and at day 0 and day 21 for the KRN study arm (see Tables 20A and 20B).
Gene expression responses for the arthritis-induced murine model were evaluated for untreated mice at day 3 and vehicle-treated mice at days 7, 14 and 21 to characterize disease progression.

[1] = KRN Day 7, Dex-treated, group Average
[2] = KRN Day 7, Dex-treated, individual murine subject, listed as Dex
[3] = KRN Day 7 Dex, group Average, whole blood
[4] = KRN Day 7 Dex, individual mouse, whole blood, listed as Dex
[5] = KRN Day 14, Dex-treated, group Average
[6] = KRN Day 14, Dex-treated, individual murine subject

## C[C@@H]1C[C@H]2[C@@H]3CCC4=CC(=O)C=C[C@]4(C)[C@@]3(F)[C@@H](O)C[C@]2(C)[C@@]1(O)C(=O)CO [Dexamethasone]
[1]
  Normalized CT Value (Delta CT) IL1RAP_M: 18.33
  Normalized CT Value (Delta CT) IL1RN—M: 17.22
  Normalized CT Value (Delta CT) IL6_M: 25.38
  Normalized CT Value (Delta CT) JUN_M: 18.89
  Normalized CT Value (Delta CT) MEF2C—M: 18.74
  Normalized CT Value (Delta CT) MMP9—M: 13.84
  Normalized CT Value (Delta CT) NFKB1—M: 15.89
  Normalized CT Value (Delta CT) PADI4—M: 18.34
  Normalized CT Value (Delta CT) PLA2G7—M: 14.34
  Normalized CT Value (Delta CT) PTPRC_M: 13.18
  Normalized CT Value (Delta CT) PTX3_M: 25.34
  Normalized CT Value (Delta CT) SERPINE1_M: 19.43
  Normalized CT Value (Delta CT) TGFB1_M: 14.97
  Normalized CT Value (Delta CT) TIMP1_M: 24.84
  Normalized CT Value (Delta CT) TLR2_M: 17.04
  Normalized CT Value (Delta CT) TLR4_M: 17.74
  Normalized CT Value (Delta CT) TNFSF5—M: 19.10
  Normalized CT Value (Delta CT) TNF_M: 19.04
  Normalized CT Value (Delta CT) VEGF_M: 20.01
[2]
  Normalized CT Value (Delta CT) IL1RAP_M: 18.35 and 18.23 and 18.52 and 17.82 and 18.87 and 18.20
  Normalized CT Value (Delta CT) IL1RN—M: 17.09 and 17.55 and 17.42 and 16.65 and 17.60 and 17.00
  Normalized CT Value (Delta CT) IL6_M: 25.25 and 25.61 and 25.41 and 25.23 and 25.30 and 25.45
  Normalized CT Value (Delta CT) JUN_M: 18.66 and 18.44 and 19.15 and 18.37 and 19.81 and 18.91
  Normalized CT Value (Delta CT) MEF2C—M: 19.10 and 17.75 and 19.18 and 18.50 and 19.03 and 18.87
  Normalized CT Value (Delta CT) MMP9—M: 13.85 and 13.83
  Normalized CT Value (Delta CT) NFKB1—M: 16.06 and 14.93 and 16.25 and 15.43 and 16.52 and 16.16
  Normalized CT Value (Delta CT) PADI4—M: 18.44 and 18.48 and 18.77 and 17.63 and 18.63 and 18.10
  Normalized CT Value (Delta CT) PLA2G7—M: 14.36 and 13.77 and 14.74 and 13.71 and 14.94 and 14.53
  Normalized CT Value (Delta CT) PTPRC_M: 13.36 and 12.55 and 13.38 and 12.76 and 13.68 and 13.33
  Normalized CT Value (Delta CT) PTX3_M: 25.27 and 25.26 and 25.48 and 25.42 and 25.11 and 25.50
  Normalized CT Value (Delta CT) SERPINE1_M: 19.43 and 18.99 and 19.66 and 19.03 and 19.81 and 19.67
  Normalized CT Value (Delta CT) TGFB1_M: 15.24 and 14.22 and 15.34 and 14.62 and 15.36 and 15.02
  Normalized CT Value (Delta CT) TIMP1_M: 24.76 and 24.74 and 24.73 and 24.34 and 25.09 and 25.40
  Normalized CT Value (Delta CT) TLR2_M: 17.41 and 16.20 and 17.63 and 16.31 and 17.86 and 16.84
  Normalized CT Value (Delta CT) TLR4_M: 17.64 and 17.44 and 18.32 and 16.84 and 18.23 and 17.96
  Normalized CT Value (Delta CT) TNFSF5—M: 19.49 and 18.16 and 19.15 and 18.68 and 19.51 and 19.59
  Normalized CT Value (Delta CT) TNF_M: 19.01 and 18.04 and 19.79 and 18.91 and 19.32 and 19.14
  Normalized CT Value (Delta CT) VEGF_M: 20.04 and 20.59 and 20.09 and 19.19 and 20.31 and 19.85
[3]
  ABCA1_M Normalized CT Value (Delta CT): 17.55
  APAF1_M Normalized CT Value (Delta CT): 18.58
  CASP1_M Normalized CT Value (Delta CT): 17.59
  CASP3_M Normalized CT Value (Delta CT): 17.32
  CCR3_M Normalized CT Value (Delta CT): 18.72
  CD3Z_M Normalized CT Value (Delta CT): 16.52
  CD8A_M Normalized CT Value (Delta CT): 17.53
  CD14_M Normalized CT Value (Delta CT): 19.08
  CD86_M Normalized CT Value (Delta CT): 21.94
  CSPG2_M Normalized CT Value (Delta CT): 18.69
  F3_M Normalized CT Value (Delta CT): 22.96
  HMOX1_M Normalized CT Value (Delta CT): 17.15
  HSPA1A—M Normalized CT Value (Delta CT): 21.13
  ICAM1—M Normalized CT Value (Delta CT): 18.39
  IFI16—M Normalized CT Value (Delta CT): 16.29
  IL1B_M Normalized CT Value (Delta CT): 13.94
  IL10_M Normalized CT Value (Delta CT): 25.42
[4]
  ABCA1_M Normalized CT Value (Delta CT): 18.22 and 16.54 and 17.90 and 16.93 and 18.24 and 17.49
  APAF1_M Normalized CT Value (Delta CT): 18.85 and 18.10 and 18.95 and 18.00 and 19.01 and 18.59
  ARG2_M Normalized CT Value (Delta CT): 17.02 and 17.06 and 17.28 and 16.20 and 17.35 and 16.48
  CASP1_M Normalized CT Value (Delta CT): 17.64 and 16.61 and 18.07 and 17.26 and 18.15 and 17.79
  CASP3_M Normalized CT Value (Delta CT): 17.09 (2×) and 17.18 and 17.10 and 17.91 and 17.54
  CCR3_M Normalized CT Value (Delta CT): 18.09 and 18.62 and 18.24 and 18.86 and 18.96 and 19.54
  CD3Z_M Normalized CT Value (Delta CT): 16.64 and 15.65 and 16.81 and 16.13 and 16.77 and 17.10
  CD8A_M Normalized CT Value (Delta CT): 17.59 and 17.17 and 17.84 and 17.11 and 17.75 and 17.73
  CD14_M Normalized CT Value (Delta CT): 19.53 and 18.14 and 19.42 and 18.23 and 20.06 and 19.13
  CD86_M Normalized CT Value (Delta CT): 22.58 and 20.83 and 22.75 and 21.71 and 22.21 and 21.57
  CSPG2_M Normalized CT Value (Delta CT): 19.41 and 17.60 and 19.56 and 17.94 and 19.13 and 18.51
  F3_M Normalized CT Value (Delta CT): 22.15 and 23.54 and 24.16 and 21.10 and 25.46 and 21.36
  HMOX1_M Normalized CT Value (Delta CT): 17.27 and 16.34 and 17.85 and 15.97 and 18.08 and 17.40
  HSPA1A—M Normalized CT Value (Delta CT): 21.03 and 20.92 and 21.32 and 20.88 and 21.99 and 20.62
  ICAM1—M Normalized CT Value (Delta CT): 18.70 and 17.80 and 18.96 and 18.10 and 18.69 and 18.08
  IFI16—M Normalized CT Value (Delta CT): 16.35 and 14.96 and 17.17 and 16.15 and 16.73 and 16.40
  IL1B_M Normalized CT Value (Delta CT): 14.33 and 13.94 and 14.24 and 13.43 and 14.32
  IL10_M Normalized CT Value (Delta CT): 25.39 and 25.60 and 25.53 and 25.18 and 25.34 and 25.45
[5]
  Normalized CT Value (Delta CT) IL1RAP_M: 18.59
  Normalized CT Value (Delta CT) IL1RN—M: 17.70
  Normalized CT Value (Delta CT) IL6_M: 25.48
  Normalized CT Value (Delta CT) JUN_M: 19.67
  Normalized CT Value (Delta CT) MEF2C—M: 20.33
  Normalized CT Value (Delta CT) MMP9—M: 14.45
  Normalized CT Value (Delta CT) NFKB1—M: 17.29
  Normalized CT Value (Delta CT) PADI4—M: 18.79
  Normalized CT Value (Delta CT) PLA2G7—M: 15.21
[6]
  Normalized CT Value (Delta CT) PTPRC_M: 14.30
  Normalized CT Value (Delta CT) PTX3_M: 25.29
  Normalized CT Value (Delta CT) SERPINE1_M: 19.63
  Normalized CT Value (Delta CT) TGFB1_M: 16.04
  Normalized CT Value (Delta CT) TIMP1_M: 25.27
  Normalized CT Value (Delta CT) TLR2_M: 18.52
